According to US20230226092A1, “CANCER […] ON G[…]” (NuCana plc, priority 2015, published 2023):

Tested on: primary acute myeloid leukaemia (AML) blasts
Experiment: In vitro cytotoxicity assay (annexin V apoptosis) in primary acute myeloid leukemia cells
Format: cell-based, human
Settings: primary AML blasts, CD34+ cells, 48h, annexin V
Method: NUC-1031 was assayed for its cytotoxic effects on primary cultures of acute myeloid leukaemia (AML) blasts. LD50 values (the concentration required to kill 50% of the tumour cells in culture) were calculated in respect of NUC-1031 and gemcitabine.
Bone marrow samples were collected in ethylenediaminetetraacetic acid (EDTA) from newly diagnosed, previously untreated, acute myeloid leukemia (AML) patients. AML blasts were enriched by density gradient centrifugation using Histopaque (Sigma, Poole, UK) and were subsequently maintained in Roswell Park Memorial Institute medium (RPMI) supplemented with 10% foetal bovine serum (FBS). Cells were treated with Gemcitabine or NUC-1031 at concentrations between 0.25 µM and 10 µM, and incubated for 48h. All cultures were maintained at 37° C. in a 5% CO2 humidified atmosphere.
Cells were harvested and labelled with CD34-fluorescein isothiocyanate (FITC) (BD Biosciences, Buckingham, UK) and then resuspended in 200 µl of binding buffer containing 4µl of annexin V labelled with allophycocyanin (APC) (eBioscience Ltd, Hatfield, UK). Apoptosis was quantified in the CD34^+ AML cells using an Accuri C6 flow cytometer (Becton Dickinson, CA, USA). At least 10,000 events were acquired and data were subsequently analysed using FlowJo software (Tree Star Inc., Ashland, OR, USA). All LD50 values (concentration of drug required to kill 50% of cells) were derived from the dose-response curves.

Nc1ccn([C@@H]2O[C@H](CO)[C@@H](O)C2(F)F)c(=O)n1 [gemcitabine, reference compound]
mean LD50: 3.1 µM
